Measured values as given in patent publication US9321776B2, “Isochromene derivatives as phoshoinositide 3-kinases inhibitors” (CHIESI FARMACEUTICI S.p.A., priority 2013, dated 2016).
Counter-ions that a name gives are not always drawn.

Legend:
Assay in all cases: PI3K enzyme inhibitory activity in the cell free assay (ADP-Glo Kinase Assay)
Format in all cases: biochemical
PI3Kδ = target: T1, PI3Kδ (Homo sapiens, UniProt O00329); details: human recombinant PI3Kδ, ATP 80 μM; read-out: PI3K delta inhibition
T1 construct: purchased Millipore Ltd (Billerica, Mass.)
T1 sequence (O00329 1-1044): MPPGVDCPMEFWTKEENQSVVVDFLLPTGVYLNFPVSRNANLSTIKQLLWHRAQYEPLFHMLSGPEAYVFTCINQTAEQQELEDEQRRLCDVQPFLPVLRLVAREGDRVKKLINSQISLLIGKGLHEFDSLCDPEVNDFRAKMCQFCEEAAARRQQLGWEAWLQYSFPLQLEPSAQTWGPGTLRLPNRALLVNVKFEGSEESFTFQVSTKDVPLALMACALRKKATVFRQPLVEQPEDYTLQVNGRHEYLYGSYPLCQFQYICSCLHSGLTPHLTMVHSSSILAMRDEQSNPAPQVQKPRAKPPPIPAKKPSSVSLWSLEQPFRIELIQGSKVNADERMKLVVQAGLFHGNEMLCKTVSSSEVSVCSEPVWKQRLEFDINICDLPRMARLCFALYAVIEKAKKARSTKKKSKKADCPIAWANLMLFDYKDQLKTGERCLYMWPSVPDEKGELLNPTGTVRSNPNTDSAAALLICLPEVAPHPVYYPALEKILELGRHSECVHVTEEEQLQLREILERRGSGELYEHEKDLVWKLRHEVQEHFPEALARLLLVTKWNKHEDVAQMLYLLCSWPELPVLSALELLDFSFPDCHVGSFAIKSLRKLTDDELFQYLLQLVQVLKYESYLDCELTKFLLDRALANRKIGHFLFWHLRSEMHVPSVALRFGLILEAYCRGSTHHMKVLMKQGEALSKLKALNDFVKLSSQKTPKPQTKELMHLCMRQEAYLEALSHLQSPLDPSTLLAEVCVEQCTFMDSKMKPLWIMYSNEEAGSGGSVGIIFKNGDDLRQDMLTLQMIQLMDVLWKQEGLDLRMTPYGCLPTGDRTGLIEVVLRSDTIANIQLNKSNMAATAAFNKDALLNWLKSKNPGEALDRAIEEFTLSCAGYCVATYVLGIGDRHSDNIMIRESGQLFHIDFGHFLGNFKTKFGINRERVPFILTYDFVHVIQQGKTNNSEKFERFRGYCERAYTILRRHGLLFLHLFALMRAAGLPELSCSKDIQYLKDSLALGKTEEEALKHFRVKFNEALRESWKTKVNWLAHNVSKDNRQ

PI3Kγ = target: T2, PI3Kγ (Homo sapiens, UniProt P48736); details: human recombinant PI3Kγ, ATP 30 μM; read-out: PI3K gamma inhibition
T2 construct: purchased Millipore Ltd (Billerica, Mass.)
T2 sequence (P48736 whole entry): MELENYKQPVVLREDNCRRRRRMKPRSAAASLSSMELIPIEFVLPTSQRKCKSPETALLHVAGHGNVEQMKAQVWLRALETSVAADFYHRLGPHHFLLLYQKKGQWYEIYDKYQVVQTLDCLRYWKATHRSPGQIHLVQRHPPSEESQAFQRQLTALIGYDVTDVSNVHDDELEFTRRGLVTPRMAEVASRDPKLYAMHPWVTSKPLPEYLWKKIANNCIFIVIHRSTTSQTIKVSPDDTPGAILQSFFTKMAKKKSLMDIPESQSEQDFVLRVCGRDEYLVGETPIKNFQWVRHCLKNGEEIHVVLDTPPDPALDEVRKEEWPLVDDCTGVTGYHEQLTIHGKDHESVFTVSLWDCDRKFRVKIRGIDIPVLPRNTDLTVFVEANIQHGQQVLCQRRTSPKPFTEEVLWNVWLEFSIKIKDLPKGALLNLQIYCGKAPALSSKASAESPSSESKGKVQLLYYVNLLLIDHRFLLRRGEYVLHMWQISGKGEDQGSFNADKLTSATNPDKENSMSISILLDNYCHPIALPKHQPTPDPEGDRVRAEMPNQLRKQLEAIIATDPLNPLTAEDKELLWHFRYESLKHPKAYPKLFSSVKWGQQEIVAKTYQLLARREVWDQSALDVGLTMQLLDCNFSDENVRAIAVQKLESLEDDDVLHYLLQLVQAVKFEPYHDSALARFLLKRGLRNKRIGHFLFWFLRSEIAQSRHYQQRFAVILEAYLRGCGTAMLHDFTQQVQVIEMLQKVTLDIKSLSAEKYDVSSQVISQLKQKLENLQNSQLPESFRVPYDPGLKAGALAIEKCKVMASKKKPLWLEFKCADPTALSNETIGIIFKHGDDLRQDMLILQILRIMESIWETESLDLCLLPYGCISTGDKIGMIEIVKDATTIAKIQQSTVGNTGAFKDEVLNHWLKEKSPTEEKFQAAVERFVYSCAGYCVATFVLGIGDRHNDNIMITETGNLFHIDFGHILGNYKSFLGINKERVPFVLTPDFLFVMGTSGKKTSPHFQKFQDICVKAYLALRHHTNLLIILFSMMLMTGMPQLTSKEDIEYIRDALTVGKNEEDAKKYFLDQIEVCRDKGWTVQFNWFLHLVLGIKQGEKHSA

PI3Kα = target: T3, PI3Kα (Homo sapiens, UniProt P42336); details: human recombinant PI3Kα, ATP 50 μM; read-out: PI3K alpha inhibition
T3 construct: purchased Millipore Ltd (Billerica, Mass.)
T3 sequence (P42336 whole entry): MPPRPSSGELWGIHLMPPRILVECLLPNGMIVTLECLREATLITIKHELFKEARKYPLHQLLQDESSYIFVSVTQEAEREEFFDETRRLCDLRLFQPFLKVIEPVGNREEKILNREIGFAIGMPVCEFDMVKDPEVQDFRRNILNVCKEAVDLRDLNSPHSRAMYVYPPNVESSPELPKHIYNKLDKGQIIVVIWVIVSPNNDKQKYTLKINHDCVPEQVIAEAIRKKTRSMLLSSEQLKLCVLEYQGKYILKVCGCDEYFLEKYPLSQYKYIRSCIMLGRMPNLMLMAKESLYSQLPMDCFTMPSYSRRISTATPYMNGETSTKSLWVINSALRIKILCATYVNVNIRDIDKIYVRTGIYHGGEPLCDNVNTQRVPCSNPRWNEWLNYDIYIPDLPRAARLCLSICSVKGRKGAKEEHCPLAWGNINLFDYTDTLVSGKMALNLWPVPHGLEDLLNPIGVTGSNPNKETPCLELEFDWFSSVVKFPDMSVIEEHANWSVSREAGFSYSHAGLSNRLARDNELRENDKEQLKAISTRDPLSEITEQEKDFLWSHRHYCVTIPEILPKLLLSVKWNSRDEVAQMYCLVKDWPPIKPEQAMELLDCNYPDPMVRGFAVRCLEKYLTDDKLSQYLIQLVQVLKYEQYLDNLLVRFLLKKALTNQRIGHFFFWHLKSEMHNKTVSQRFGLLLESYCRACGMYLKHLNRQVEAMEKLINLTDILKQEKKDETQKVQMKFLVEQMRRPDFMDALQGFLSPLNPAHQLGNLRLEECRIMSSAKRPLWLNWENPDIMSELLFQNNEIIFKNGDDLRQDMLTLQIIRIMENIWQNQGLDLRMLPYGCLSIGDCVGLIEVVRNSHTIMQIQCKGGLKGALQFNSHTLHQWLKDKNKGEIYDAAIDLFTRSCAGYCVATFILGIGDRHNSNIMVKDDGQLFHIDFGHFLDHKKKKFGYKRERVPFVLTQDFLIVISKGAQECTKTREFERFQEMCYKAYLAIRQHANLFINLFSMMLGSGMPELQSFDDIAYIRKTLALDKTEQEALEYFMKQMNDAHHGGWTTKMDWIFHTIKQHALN

PI3Kβ = target: T4, PI3Kβ (Homo sapiens, UniProt P42338); details: human recombinant PI3Kβ, ATP 100 μM; read-out: PI3K beta inhibition
T4 construct: purchased Millipore Ltd (Billerica, Mass.)
T4 sequence (P42338 whole entry): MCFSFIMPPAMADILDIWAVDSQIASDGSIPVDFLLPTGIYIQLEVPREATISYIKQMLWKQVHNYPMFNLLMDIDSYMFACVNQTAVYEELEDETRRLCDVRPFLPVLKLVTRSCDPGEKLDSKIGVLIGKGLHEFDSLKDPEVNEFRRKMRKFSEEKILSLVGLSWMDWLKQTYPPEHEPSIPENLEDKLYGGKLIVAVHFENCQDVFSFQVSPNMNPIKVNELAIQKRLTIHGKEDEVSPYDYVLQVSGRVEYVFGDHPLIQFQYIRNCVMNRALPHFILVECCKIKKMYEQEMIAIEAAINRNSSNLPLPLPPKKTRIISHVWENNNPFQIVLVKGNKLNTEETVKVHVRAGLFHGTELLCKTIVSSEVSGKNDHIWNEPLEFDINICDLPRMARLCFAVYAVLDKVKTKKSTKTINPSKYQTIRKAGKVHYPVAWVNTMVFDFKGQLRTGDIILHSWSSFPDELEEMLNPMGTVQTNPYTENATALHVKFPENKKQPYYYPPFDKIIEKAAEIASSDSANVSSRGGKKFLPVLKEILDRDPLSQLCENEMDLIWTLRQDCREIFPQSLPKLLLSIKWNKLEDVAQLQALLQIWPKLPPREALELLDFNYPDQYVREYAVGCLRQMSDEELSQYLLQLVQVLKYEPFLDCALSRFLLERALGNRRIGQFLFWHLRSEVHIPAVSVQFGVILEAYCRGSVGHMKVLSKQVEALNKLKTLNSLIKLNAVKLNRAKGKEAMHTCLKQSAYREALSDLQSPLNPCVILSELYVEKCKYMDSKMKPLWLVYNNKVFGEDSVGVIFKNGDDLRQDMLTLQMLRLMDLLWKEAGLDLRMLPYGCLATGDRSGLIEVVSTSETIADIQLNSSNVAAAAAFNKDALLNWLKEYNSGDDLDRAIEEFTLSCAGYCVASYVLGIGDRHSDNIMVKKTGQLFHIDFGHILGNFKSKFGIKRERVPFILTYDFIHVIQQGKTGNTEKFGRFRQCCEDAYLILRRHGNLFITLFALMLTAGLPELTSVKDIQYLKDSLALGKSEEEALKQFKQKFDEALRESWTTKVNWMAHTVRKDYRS

Row | Compound | IC50 (PI3Kδ) | IC50 (PI3Kγ) | IC50 (PI3Kα) | IC50 (PI3Kβ)
1 | CC(c1oc(=O)c2ccccc2c1-c1ccc(CN2CCOCC2)s1)n1nc(-c2cc(O)cc(F)c2)c2c(N)ncnc21 (single isomer, unassigned) [Example 49a, 3-(1-(4-amino-3-(3-fluoro-5-hydroxyphenyl)-1H-pyrazolo[3,4-d]pyrimidin-1-yl)ethyl)-4-(5-(morpholinomethyl)thiophen-2-yl)-1H-isochromen-1-one hydrochloride] | < 0.01 µM | 0.01 to 1 µM | 0.01 to 1 µM | 0.01 to 1 µM
2 | CC(c1oc(=O)c2ccccc2c1-c1ccc(CN2CCCCC2)s1)n1nc(-c2cc(O)cc(F)c2)c2c(N)ncnc21 (single isomer, unassigned) [Example 68b, 3-(1-(4-amino-3-(3-fluoro-5-hydroxyphenyl)-1H-pyrazolo[3,4-d]pyrimidin-1-yl)ethyl)-4-(5-(piperidin-1-ylmethyl)thiophen-2-yl)-1H-isochromen-1-one hydrochloride single enantiomers] | < 0.01 µM | 0.01 to 1 µM | 0.01 to 1 µM | 0.01 to 1 µM
3 | CC(c1oc(=O)c2ccccc2c1-c1ccc(CN2CCN(CCO)CC2)s1)n1nc(-c2cc(O)cc(F)c2)c2c(N)ncnc21 (single isomer, unassigned) [Example 76b, 3-(1-(4-amino-3-(3-fluoro-5-hydroxyphenyl)-1H-pyrazolo[3,4-d]pyrimidin-1-yl)ethyl)-4-(5-((4-(2-hydroxyethyl)piperazin-1-yl)methyl)thiophen-2-yl)-1H-isochromen-1-one hydrochloride] | < 0.01 µM | 0.01 to 1 µM | 0.01 to 1 µM | 0.01 to 1 µM
4 | CC(c1oc(=O)c2ccccc2c1-c1cccc(CCCN(C)C)c1)n1nc(-c2cc(O)cc(F)c2)c2c(N)ncnc21 (single isomer, unassigned) [Example 137b, 3-(1-(4-amino-3-(3-fluoro-5-hydroxyphenyl)-1H-pyrazolo[3,4-d]pyrimidin-1-yl)ethyl)-4-(3-(3-(dimethylamino)propyl)phenyl)-1H-isochromen-1-one single enantiomers] | < 0.01 µM | 0.01 to 1 µM | > 1 µM | 0.01 to 1 µM
5 | CC(c1oc(=O)c2ccccc2c1-c1ccc(CCCN(C)C)cc1)n1nc(-c2cc(O)cc(F)c2)c2c(N)ncnc21 (single isomer, unassigned) [Example 138b, 3-(1-(4-amino-3-(3-fluoro-5-hydroxyphenyl)-1H-pyrazolo[3,4-d]pyrimidin-1-yl)ethyl)-4-(4-(3-(dimethylamino)propyl)phenyl)-1H-isochromen-1-one single enantiomers] | < 0.01 µM | 0.01 to 1 µM | > 1 µM | > 1 µM
6 | CC(c1oc(=O)c2ccccc2c1-c1cncs1)n1nc(-c2cc(O)cc(F)c2)c2c(N)ncnc21 (single isomer, unassigned) [Example 167a, 3-(1-(4-amino-3-(3-fluoro-5-hydroxyphenyl)-1H-pyrazolo[3,4-d]pyrimidin-1-yl)ethyl)-4-(thiazol-5-yl)-1H-isochromen-1-one single enantiomer] | < 0.01 µM | 0.01 to 1 µM | 0.01 to 1 µM | 0.01 to 1 µM
7 | CC(c1oc(=O)c2ccccc2c1-c1cncs1)n1nc(-c2cc(O)cc(F)c2)c2c(N)ncnc21 (single isomer, unassigned) [Example 167b, 3-(1-(4-amino-3-(3-fluoro-5-hydroxyphenyl)-1H-pyrazolo[3,4-d]pyrimidin-1-yl)ethyl)-4-(thiazol-5-yl)-1H-isochromen-1-one single enantiomer] | < 0.01 µM | 0.01 to 1 µM | > 1 µM | 0.01 to 1 µM
8 | CC(c1oc(=O)c2ccccc2c1C1=CCCN(Cc2ccccc2)C1)n1nc(-c2cc(O)cc(F)c2)c2c(N)ncnc21 (single isomer, unassigned) [Example 169a, 3-(1-(4-amino-3-(3-fluoro-5-hydroxyphenyl)-1H-pyrazolo[3,4-d]pyrimidin-1-yl)ethyl)-4-(1-benzyl-1,2,5,6-tetrahydropyridin-3-yl)-1H-isochromen-1-one hydrochloride single enantiomers] | < 0.01 µM | 0.01 to 1 µM | > 1 µM | 0.01 to 1 µM
9 | CC(c1oc(=O)c2ccccc2c1C1=CCCN(Cc2ccccc2)C1)n1nc(-c2cc(O)cc(F)c2)c2c(N)ncnc21 (single isomer, unassigned) [Example 169b, 3-(1-(4-amino-3-(3-fluoro-5-hydroxyphenyl)-1H-pyrazolo[3,4-d]pyrimidin-1-yl)ethyl)-4-(1-benzyl-1,2,5,6-tetrahydropyridin-3-yl)-1H-isochromen-1-one hydrochloride single enantiomers] |  |  | > 1 µM | 0.01 to 1 µM
10 | CC(Nc1ncnc2[nH]cnc12)c1oc(=O)c2ccccc2c1C1=CCNCC1 (stereo not shown) [Example 23, 3-(1-(9H-Purin-6-ylamino)ethyl)-4-(1,2,3,6-tetrahydropyridin-4-yl)-1H-isochromen-1-one hydrochloride] | < 0.01 µM | > 1 µM | > 1 µM | 0.01 to 1 µM
11 | O=c1oc(CNc2ncnc3[nH]cnc23)c(-c2ccccc2)c2ccccc12 [Example 29, 3-((9H-Purin-6-ylamino)methyl)-4-phenyl-1H-isochromen-1-one] |  | 0.01 to 1 µM | > 1 µM | 
12 | Cc1cccc(-c2c(C(C)n3nc(-c4cn[nH]c4)c4c(N)ncnc43)oc(=O)c3ccccc23)c1 (stereo not shown) [Example 42, 3-(1-(4-Amino-3-(1H-pyrazol-4-yl)-1H-pyrazolo[3,4-d]pyrimidin-1-yl)ethyl)-4-m-tolyl-1H-isochromen-1-one] | < 0.01 µM | 0.01 to 1 µM | > 1 µM | 
13 | CC(c1oc(=O)c2ccccc2c1-c1ccccc1)n1nc(-c2cncc(NS(=O)(=O)c3ccc(F)cc3)c2)c2c(N)ncnc21 (stereo not shown) [Example 87, N-(5-(4-amino-1-(1-(1-oxo-4-phenyl-1H-isochromen-3-yl)ethyl)-1H-pyrazolo[3,4-d]pyrimidin-3-yl)pyridin-3-yl)-4-fluorobenzenesulfonamide] | 0.01 to 1 µM | 0.01 to 1 µM | 0.01 to 1 µM | 
14 | CC(c1oc(=O)c2ccccc2c1-c1ccccc1)n1nc(-c2cc[nH]n2)c2c(N)ncnc21 (stereo not shown) [Example 111, 3-(1-(4-amino-3-(1H-pyrazol-3-yl)-1H-pyrazolo[3,4-d]pyrimidin-1-yl)ethyl)-4-phenyl-1H-isochromen-1-one] | 0.01 to 1 µM | 0.01 to 1 µM | > 1 µM | 
15 | CC(c1oc(=O)c2ccccc2c1C#CCN(C)C)n1nc(-c2cc(O)cc(F)c2)c2c(N)ncnc21 (stereo not shown) [Example 158, 3-(1-(4-amino-3-(3-fluoro-5-hydroxyphenyl)-1H-pyrazolo[3,4-d]pyrimidin-1-yl)ethyl)-4-(3-(dimethylamino)prop-1-yn-1-yl)-1H-isochromen-1-one hydrochloride] | 0.01 to 1 µM |  | 0.01 to 1 µM | 0.01 to 1 µM
16 | Cc1c(O)cncc1-c1nn(C(C)c2oc(=O)c3ccccc3c2-c2ccccc2)c2ncnc(N)c12 (stereo not shown) [Example 159, 3-(1-(4-amino-3-(5-hydroxy-4-methylpyridin-3-yl)-1H-pyrazolo[3,4-d]pyrimidin-1-yl)ethyl)-4-phenyl-1H-isochromen-1-one] | 0.01 to 1 µM | 0.01 to 1 µM |  | > 1 µM
17 | Cc1ncc(O)cc1-c1nn(C(C)c2oc(=O)c3ccccc3c2-c2ccccc2)c2ncnc(N)c12 (stereo not shown) [Example 160, 3-(1-(4-amino-3-(5-hydroxy-2-methylpyridin-3-yl)-1H-pyrazolo[3,4-d]pyrimidin-1-yl)ethyl)-4-phenyl-1H-isochromen-1-one] | < 0.01 µM | 0.01 to 1 µM |  | 0.01 to 1 µM
18 | Cc1ccc2c(-c3ccccc3)c(C(C)n3nc(-c4cc(O)cc(F)c4)c4c(N)ncnc43)oc(=O)c2c1 (stereo not shown) [Example 162, 3-(1-(4-amino-3-(3-fluoro-5-hydroxyphenyl)-1H-pyrazolo[3,4-d]pyrimidin-1-yl)ethyl)-7-methyl-4-phenyl-1H-isochromen-1-one] | 0.01 to 1 µM | 0.01 to 1 µM | > 1 µM | 
19 | Nc1ncnc2c1c(I)nn2Cc1oc(=O)c2ccccc2c1-c1ccccc1 [Int D1, 3-((4-Amino-3-iodo-1H-pyrazolo[3,4-d]pyrimidin-1-yl)methyl)-4-phenyl-1H-isochromen-1-one] | 0.01 to 1 µM | 0.01 to 1 µM |  | > 1 µM
